From patent publication US11590139B2, “Substituted aminopurine compounds, compositions thereof, and methods of treatment therewith” (Signal Pharmaceuticals, LLC, priority 2014, dated 2023)

test system: Lox-IMVI melanoma cell line; experiment: Lox-IMVI anti-proliferative assay (growth inhibition, Cell Titer-Glo); type: cell-based, human; conditions: Homo sapiens; IC50 activity level in the cell-based Lox-IMVI anti-proliferative assay; read-out: Activity
Outline: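 IC50 values reflect the concentration giving 50% of DMSO-control luminescence after 72 h of treatment, fitted with a four-parameter logistic model. Cells were cultured in RPMI + 10% FBS with compound from 0.5 nM to 10 μM.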

| Compound | IC50 [nM] |
| --- | --- |
| NC(=O)[C@H]1CC[C@@H](n2c(Nc3c(F)cc(Cl)cc3F)nc3cnc(N[C@H]4C[C@@H](O)C4)nc32)CC1 [Example 322, (1s,4s)-4-(8-(4-chloro-2,6-difluorophenylamino)-2-((1s,3s)-3-hydroxycyclobutylamino)-9H-purin-9-yl)cyclohexanecarboxamide] | > 1000 |
| NC(=O)[C@H]1CC[C@@H](n2c(Nc3c(F)cc(Cl)cc3F)nc3cnc(NC4CCC4)nc32)CC1 [Example 129, (1s,4s)-4-(8-(4-chloro-2,6-difluorophenylamino)-2-(cyclobutylamino)-9H-purin-9-yl)cyclohexanecarboxamide] | > 1000 |
| NC(=O)[C@H]1CC[C@@H](n2c(Nc3c(F)cc(F)cc3Cl)nc3cnc(N[C@H]4COC[C@@H]4O)nc32)CC1 [Example 312, (1R,4s)-4-(8-(2-chloro-4,6-difluorophenylamino)-2-((3S,4R)-4-hydroxytetrahydrofuran-3-ylamino)-9H-purin-9-yl)cyclohexanecarboxamide] | > 1000 |
| NC(=O)[C@H]1CC[C@@H](n2c(Nc3c(Cl)cc(Cl)cc3Cl)nc3cnc(NC4CC5(COC5)C4)nc32)CC1 [Example 177, (1s,4s)-4-(2-(2-oxaspiro[3.3]heptan-6-ylamino)-8-(2,4,6-trichlorophenylamino)-9H-purin-9-yl)cyclohexanecarboxamide] | 250 to 500 |
| C[C@@H](CO)Nc1ncc2nc(Nc3c(F)cc(F)cc3Cl)n([C@H]3CC[C@@H](C(N)=O)CC3)c2n1 [Example 136, (1R,4s)-4-(8-(2-chloro-4,6-difluorophenylamino)-2-((S)-1-hydroxypropan-2-ylamino)-9H-purin-9-yl)cyclohexanecarboxamide] | 500 to 1000 |
| CS(=O)(=O)N1CCC(Nc2ncc3nc(Nc4c(F)cccc4Cl)n([C@H]4CC[C@@H](C(N)=O)CC4)c3n2)CC1 [Example 114, (1s,4s)-4-(8-(2-chloro-6-fluorophenylamino)-2-(1-(methylsulfonyl)piperidin-4-ylamino)-9H-purin-9-yl)cyclohexanecarboxamide] | > 1000 |
| N#Cc1cc(Cl)c(Nc2nc3cnc(NC4CCC4)nc3n2[C@H]2CC[C@@H](C(N)=O)CC2)c(Cl)c1 [Example 392, (1s,4s)-4-(2-(cyclobutylamino)-8-(2,6-dichloro-4-cyanophenylamino)-9H-purin-9-yl)cyclohexanecarboxamide] | < 250 |
| NC(=O)[C@H]1CC[C@@H](n2c(Nc3c(F)cccc3F)nc3cnc(NC4CCC4)nc32)CC1 [Example 42] | > 1000 |
| COC[C@H](C)Nc1ncc2nc(Nc3c(Cl)cc(Cl)cc3Cl)n([C@H]3CC[C@@H](C(N)=O)CC3)c2n1 [Example 142, (1R,4s)-4-(2-((S)-1-methoxypropan-2-ylamino)-8-(2,4,6-trichlorophenylamino)-9H-purin-9-yl)cyclohexanecarboxamide] | > 1000 |
| NC(=O)[C@H]1CC[C@@H](n2c(Nc3c(F)cc(F)cc3F)nc3cnc(NC4CCOCC4)nc32)CC1 [Example 11] | < 250 |
| CS(=O)(=O)N1CCC(Nc2ncc3nc(Nc4c(Cl)cc(Cl)cc4Cl)n([C@H]4CC[C@@H](C(N)=O)CC4)c3n2)CC1 [Example 292, (1s,4s)-4-(2-(1-(methylsulfonyl)piperidin-4-ylamino)-8-(2,4,6-trichlorophenylamino)-9H-purin-9-yl)cyclohexanecarboxamide] | 500 to 1000 |

Continued, values first:

| IC50 [nM] | Compound |
| --- | --- |
| > 1000 | CC(=O)N1CCC(Nc2ncc3nc(Nc4c(Cl)cc(Cl)cc4Cl)n([C@H]4CC[C@@H](C(N)=O)CC4)c3n2)CC1 [Example 197, (1s,4s)-4-(2-(1-acetylpiperidin-4-ylamino)-8-(2,4,6-trichlorophenylamino)-9H-purin-9-yl)cyclohexanecarboxamide] |
| > 1000 | NC(=O)[C@H]1CC[C@@H](n2c(Nc3c(F)cc(Cl)cc3Cl)nc3cnc(N[C@@H]4CCC[C@H]4O)nc32)CC1 [Example 255, (1S,4s)-4-(8-(2,4-dichloro-6-fluorophenylamino)-2-((1R,2R)-2-hydroxycyclopentylamino)-9H-purin-9-yl)cyclohexanecarboxamide] |
| 500 to 1000 | NC(=O)[C@H]1CC[C@@H](n2c(Nc3c(F)cc(F)cc3Cl)nc3cnc(NC4CC(F)(F)C4)nc32)CC1 [Example 228, (1s,4s)-4-(8-(2-chloro-4,6-difluorophenylamino)-2-(3,3-difluorocyclobutylamino)-9H-purin-9-yl)cyclohexanecarboxamide] |
| > 1000 | NC(=O)[C@H]1CC[C@@H](n2c(Nc3c(Cl)cccc3Cl)nc3cnc(N[C@@H]4CCC[C@H]4O)nc32)CC1 [Example 253, (1S,4s)-4-(8-(2,6-dichlorophenylamino)-2-((1R,2R)-2-hydroxycyclopentylamino)-9H-purin-9-yl)cyclohexanecarboxamide] |

same assay, conditions: Homo sapiens; Lox-IMVI anti-proliferative assay, IC50 activity level; read-out: Activity

| IC50 [nM] | Compound |
| --- | --- |
| < 250 | NC(=O)[C@H]1CC[C@@H](n2c(Nc3c(Cl)cc(F)cc3Cl)nc3cnc(N[C@@H]4CCC(F)(F)C4)nc32)CC1 [Example 586, (1S,4s)-4-(8-(2,6-dichloro-4-fluorophenylamino)-2-((R)-3,3-difluorocyclopentylamino)-9H-purin-9-yl)cyclohexanecarboxamide] |
| 500 to 1000 | C[C@@H]1COCC[C@@H]1Nc1ncc2nc(Nc3c(F)cc(Cl)cc3F)n([C@H]3CC[C@@H](C(N)=O)CC3)c2n1 [Example 509, (1R,4s)-4-(8-(4-chloro-2,6-difluorophenylamino)-2-((3S,4S)-3-methyltetrahydro-2H-pyran-4-ylamino)-9H-purin-9-yl)cyclohexanecarboxamide] |
| > 1000 | N#Cc1cc(F)c(Nc2nc3cnc(NC4CC5(COC5)C4)nc3n2[C@H]2CC[C@@H](C(N)=O)CC2)c(F)c1 [Example 573, (1s,4s)-4-(2-(2-oxaspiro[3.3]heptan-6-ylamino)-8-(4-cyano-2,6-difluorophenylamino)-9H-purin-9-yl)cyclohexanecarboxamide] |
| 500 to 1000 | C[C@H]1COCC[C@@H]1Nc1ncc2nc(Nc3c(F)cc(Cl)cc3Cl)n([C@H]3CC[C@@H](C(N)=O)CC3)c2n1 [Example 504, (1R,4s)-4-(8-(2,4-dichloro-6-fluorophenylamino)-2-((3R,4S)-3-methyltetrahydro-2H-pyran-4-ylamino)-9H-purin-9-yl)cyclohexanecarboxamide] |
| > 1000 | C[C@]1(C(N)=O)CC[C@H](n2c(Nc3c(Cl)cc(Cl)cc3Cl)nc3cnc(NC4CCOCC4)nc32)CC1 [Example 474, (1r,4r)-1-methyl-4-(2-(tetrahydro-2H-pyran-4-ylamino)-8-(2,4,6-trichlorophenylamino)-9H-purin-9-yl)cyclohexanecarboxamide] |
| 250 to 500 | C[C@@H]1COCC[C@H]1Nc1ncc2nc(Nc3c(F)cc(Cl)cc3F)n([C@H]3CC[C@@H](C(N)=O)CC3)c2n1 [Example 532, (1S,4s)-4-(8-(4-chloro-2,6-difluorophenylamino)-2-((3S,4R)-3-methyltetrahydro-2H-pyran-4-ylamino)-9H-purin-9-yl)cyclohexanecarboxamide] |

same assay, conditions: Homo sapiens; Lox-IMVI melanoma cell line, anti-proliferative assay; read-out: Activity (IC50 activity level)

| Compound | IC50 [nM] |
| --- | --- |
| N#Cc1cc(F)c(Nc2nc3cnc(N[C@@H]4CCCN(Cc5ccccc5)C4)nc3n2[C@H]2CC[C@@H](C(N)=O)CC2)c(F)c1 [Example 755, (1S,4s)-4-(2-((R)-1-benzylpiperidin-3-ylamino)-8-(4-cyano-2,6-difluorophenylamino)-9H-purin-9-yl)cyclohexanecarboxamide] | > 1000 |
| CC(=O)N1CCC[C@@H](Nc2ncc3nc(Nc4c(Cl)cc(C(F)(F)F)cc4Cl)n([C@H]4CC[C@@H](C(N)=O)CC4)c3n2)C1 [Example 798, (1S,4s)-4-(2-((R)-1-acetylpiperidin-3-ylamino)-8-(2,6-dichloro-4-(trifluoromethyl)phenylamino)-9H-purin-9-yl)cyclohexanecarboxamide] | > 1000 |
| N#Cc1cc(F)c(Nc2nc3cnc(N[C@@H]4CCCN(Cc5ccccc5)C4)nc3n2[C@H]2CC[C@@H](C(N)=O)CC2)c(Cl)c1 [Example 777, (1S,4s)-4-(2-((R)-1-benzylpiperidin-3-ylamino)-8-(2-chloro-4-cyano-6-fluorophenylamino)-9H-purin-9-yl)cyclohexanecarboxamide] | > 1000 |
| C[C@]1(C(N)=O)CC[C@@H](n2c(Nc3c(F)cc(C#N)cc3Cl)nc3cnc(N[C@H]4CCC[C@@H](O)C4)nc32)CC1 [Example 633, (1R,4s)-4-(8-(2-chloro-4-cyano-6-fluorophenylamino)-2-((1S,3R)-3-hydroxycyclohexylamino)-9H-purin-9-yl)-1-methylcyclohexanecarboxamide] | 500 to 1000 |

Further lines, results first:

| IC50 [nM] | Compound |
| --- | --- |
| > 1000 | CC(=O)N1CCC[C@@H](Nc2ncc3nc(Nc4c(F)cc(F)cc4Cl)n([C@H]4CC[C@@H](C(N)=O)CC4)c3n2)C1 [Example 797, (1S,4s)-4-(2-((R)-1-acetylpiperidin-3-ylamino)-8-(2-chloro-4,6-difluorophenylamino)-9H-purin-9-yl)cyclohexanecarboxamide] |
| > 1000 | C[C@]1(C(N)=O)CC[C@@H](n2c(Nc3c(F)cc(Cl)cc3F)nc3cnc(N[C@H]4CC[C@H](O)C4)nc32)CC1 [Example 648, (1R,4s)-4-(8-(4-chloro-2,6-difluorophenylamino)-2-((1S,3S)-3-hydroxycyclopentylamino)-9H-purin-9-yl)-1-methylcyclohexanecarboxamide] |
| > 1000 | NC(=O)[C@H]1CC[C@@H](n2c(Nc3c(F)cc(F)cc3Cl)nc3cnc(NC[C@@H]4CCCC[C@H]4O)nc32)CC1 [Example 660, (1R,4s)-4-(8-(2-chloro-4,6-difluorophenylamino)-2-(((1S,2R)-2-hydroxycyclohexyl)methylamino)-9H-purin-9-yl)cyclohexanecarboxamide] |
| > 1000 | CNC(=O)N1CCC[C@@H](Nc2ncc3nc(Nc4c(F)cc(Cl)cc4Cl)n([C@H]4CC[C@@H](C(N)=O)CC4)c3n2)C1 [Example 706, (R)-3-(9-((1s,4S)-4-carbamoylcyclohexyl)-8-(2,4-dichloro-6-fluorophenylamino)-9H-purin-2-ylamino)-N-methylpiperidine-1-carboxamide] |
